Here are results for 22 molecules from ChEMBL document CHEMBL1138794, “Influence of the linker in bispyridium compounds on the inhibition of human choline kinase” (J Med Chem, 2004).

One assay concerns the target Choline kinase alpha (Homo sapiens, UniProt P35790). Put plainly: Inhibitory activity against human choline kinase enzyme.
In another assay the test system is HT-29. Nature of the assay: Antiproliferative activity was determined using HT-29 human colon cancer cell line. The format is functional, cell-based.

Structures are written as SMILES. pIC50: −log10 of the molar value.

Chain of Choline kinase alpha (P35790 whole entry): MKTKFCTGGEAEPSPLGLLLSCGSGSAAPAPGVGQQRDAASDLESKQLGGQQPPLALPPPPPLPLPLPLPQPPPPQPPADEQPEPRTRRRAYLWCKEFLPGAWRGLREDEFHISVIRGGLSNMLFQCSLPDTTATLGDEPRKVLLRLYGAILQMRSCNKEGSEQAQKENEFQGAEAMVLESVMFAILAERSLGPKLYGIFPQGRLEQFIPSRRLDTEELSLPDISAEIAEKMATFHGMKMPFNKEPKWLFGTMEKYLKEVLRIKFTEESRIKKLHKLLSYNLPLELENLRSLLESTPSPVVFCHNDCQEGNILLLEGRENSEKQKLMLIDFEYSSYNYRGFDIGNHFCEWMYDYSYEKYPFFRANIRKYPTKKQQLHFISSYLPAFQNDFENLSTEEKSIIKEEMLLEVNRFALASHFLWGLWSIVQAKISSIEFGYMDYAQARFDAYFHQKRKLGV

As usually defined, the pIC50 is −log10 of the IC50, conventionally taken in molar units. The low end stands for a high IC50, the high end for a low IC50. As to `CN(c1cc[n+](Cc2cccc(C[n+]3ccc(N(C)c4cc(Cl)cc(Cl)c4)cc3)c2)cc1)c1cc(Cl)cc(Cl)c1`, the negative logarithm of the IC50 (pIC50) was 5.08 against Choline kinase alpha and 5.40 in the assay on HT-29. In the assay with HT-29, `c1cc(C[n+]2ccc(N3CCCCC3)cc2)cc(-c2cccc(C[n+]3ccc(N4CCCCC4)cc3)c2)c1` had a pIC50 of 5.80. Consider `CN(c1ccc(Cl)cc1)c1cc[n+](C[C@H]2C[C@@H]2C[n+]2ccc(N(C)c3ccc(Cl)cc3)cc2)cc1`, for which the negative logarithm of the IC50 (pIC50) was 4.32 against Choline kinase alpha and 4.61 in the assay on HT-29. On the same counts, the results for `c1cc(C[n+]2ccc(N3CCCCC3)cc2)ccc1C[n+]1ccc(N2CCCCC2)cc1` are 4.42 and less than 4.00. On the same counts, the results for `CN(c1ccc(Cl)cc1)c1cc[n+](Cc2ccc(-c3ccc(C[n+]4ccc(N(C)c5ccc(Cl)cc5)cc4)cc3)cc2)cc1` are 5.74 and 6.31. On the same counts, the results for `CN(c1cc[n+](Cc2cccc(-c3cccc(C[n+]4ccc(N(C)c5cc(Cl)cc(Cl)c5)cc4)c3)c2)cc1)c1cc(Cl)cc(Cl)c1` are 5.59 and 5.74. Regarding `CN(c1ccccc1)c1cc[n+](Cc2cccc(-c3cccc(C[n+]4ccc(N(C)c5ccccc5)cc4)c3)c2)cc1`, the results for the pIC50 against Choline kinase alpha and with HT-29 were 6.40 and 5.66, respectively.

In the case of `c1cc(-c2ccc(C[n+]3ccc(N4CCCC4)cc3)cc2)ccc1C[n+]1ccc(N2CCCC2)cc1`, the negative-log IC50 (pIC50) at Choline kinase alpha is 4.95; with HT-29, 5.21. On the same counts, the results for `c1cc(C[n+]2ccc(N3CCCC3)cc2)ccc1C[n+]1ccc(N2CCCC2)cc1` are 4.62 and less than 4.00.

Consider `CN(c1ccccc1)c1cc[n+](Cc2ccc(C[n+]3ccc(N(C)c4ccccc4)cc3)cc2)cc1`, for which the pIC50 on Choline kinase alpha is 4.82; in the assay with HT-29 it was 5.17.

`CN(c1ccccc1)c1cc[n+](Cc2ccc(-c3ccc(C[n+]4ccc(N(C)c5ccccc5)cc4)cc3)cc2)cc1`: the pIC50 at Choline kinase alpha was 5.37; with HT-29 it was 5.70.

For `CN(c1ccc(Cl)cc1)c1cc[n+](Cc2ccc(C[n+]3ccc(N(C)c4ccc(Cl)cc4)cc3)cc2)cc1`, the pIC50 at Choline kinase alpha was 5.54; in the assay on HT-29, 5.46. As to `c1cc(-c2ccc(C[n+]3ccc(N4CCCCC4)cc3)cc2)ccc1C[n+]1ccc(N2CCCCC2)cc1`, the figures for the pIC50 on Choline kinase alpha and with HT-29 were 5.06 and 5.38, respectively.

In the case of `c1c[n+](C[C@H]2C[C@@H]2C[n+]2ccc(N3CCCCC3)cc2)ccc1N1CCCCC1`, the pIC50 against Choline kinase alpha was 4.01; in the assay with HT-29, 4.00. Turning to `c1cc(C[n+]2ccc(N3CCCCC3)cc2)cc(C[n+]2ccc(N3CCCCC3)cc2)c1`, the figures for the negative-log IC50 (pIC50) against Choline kinase alpha and with HT-29 were 4.28 and 4.37, respectively. For `CN(c1cc[n+](Cc2ccc(C[n+]3ccc(N(C)c4cc(Cl)cc(Cl)c4)cc3)cc2)cc1)c1cc(Cl)cc(Cl)c1` the same measures were 5.01 and 5.54.

As for `CN(c1ccccc1)c1cc[n+](C[C@H]2C[C@@H]2C[n+]2ccc(N(C)c3ccccc3)cc2)cc1`, the pIC50 against Choline kinase alpha and in the assay on HT-29 was less than 4.00 each time. Turning to `CN(c1ccc(Cl)cc1)c1cc[n+](Cc2cccc(C[n+]3ccc(N(C)c4ccc(Cl)cc4)cc3)c2)cc1`, the negative logarithm of the IC50 (pIC50) on Choline kinase alpha is 5.14; in the assay with HT-29, 5.48. For `c1c[n+](C[C@H]2C[C@@H]2C[n+]2ccc(N3CCCC3)cc2)ccc1N1CCCC1`, the pIC50 against Choline kinase alpha and in the assay with HT-29 was less than 4.00 in each case. On to `CN(c1ccccc1)c1cc[n+](Cc2cccc(C[n+]3ccc(N(C)c4ccccc4)cc3)c2)cc1`, for which the pIC50 at Choline kinase alpha was 4.43; in the assay with HT-29, 5.29. For `CN(c1cc[n+](C[C@H]2C[C@@H]2C[n+]2ccc(N(C)c3cc(Cl)cc(Cl)c3)cc2)cc1)c1cc(Cl)cc(Cl)c1` the same measures were less than 4.00 and 5.12.

On to `c1cc(C[n+]2ccc(N3CCCC3)cc2)cc(C[n+]2ccc(N3CCCC3)cc2)c1`, for which the figures for the pIC50 against Choline kinase alpha and with HT-29 were 4.07 and 4.30, respectively.
